# How the values were obtained:
# Details in all cases: human; call rule not given here
# Hepatotoxicity [1] = assay: FDA HLAED, serum glutamic oxaloacetic transaminase (SGOT) increase
# Hepatotoxicity [2] = assay: FDA HLAED, gamma-glutamyl transferase (GGT) increase
# Hepatotoxicity [3] = assay: FDA HLAED, lactate dehydrogenase (LDH) increase
# Hepatotoxicity [4] = assay: FDA HLAED, alkaline phosphatase increase
# Hepatotoxicity [5] = assay: FDA HLAED, liver enzyme composite activity
# Hepatotoxicity [6] = assay: FDA HLAED, serum glutamic pyruvic transaminase (SGPT) increase
# For GGT Increase - Index Value in this document: reference of the scale not given here.
# For LDH Increase - Index Value in this document: reference of the scale not given here.
SMILES,SGOT Increase - Activity Score (Hepatotoxicity [1]),SGOT Increase - Index Value (Hepatotoxicity [1]),SGOT Increase - Number of Reports (Hepatotoxicity [1]),GGT Increase - Activity Score (Hepatotoxicity [2]),GGT Increase - Index Value (Hepatotoxicity [2]),GGT Increase - Number of Reports (Hepatotoxicity [2]),LDH Increase - Activity Score (Hepatotoxicity [3]),LDH Increase - Index Value (Hepatotoxicity [3]),LDH Increase - Number of Reports (Hepatotoxicity [3]),Alkaline Phosphatase Increase - Activity Score (Hepatotoxicity [4]),Alkaline Phosphatase Increase - Index Value (Hepatotoxicity [4]),Alkaline Phosphatase Increase - Number of Reports (Hepatotoxicity [4]),Composite Activity - Active (Hepatotoxicity [5]),Composite Activity - Marginal (Hepatotoxicity [5]),Composite Activity - Score (Hepatotoxicity [5]),SGPT Increase - Activity Score (Hepatotoxicity [6]),SGPT Increase - Index Value (Hepatotoxicity [6]),SGPT Increase - Number of Reports (Hepatotoxicity [6]),also measured
CCCC1O[C@@H]2C[C@H]3[C@@H]4CCC5=CC(=O)C=C[C@]5(C)[C@H]4[C@@H](O)C[C@]3(C)[C@]2(C(=O)CO)O1 (stereo not given in full) [BUDESONIDE],Inactive,0,< 4,Inactive,0,< 4,Inactive,0,< 4,Inactive,0.2,< 4,0,0,Inactive,Inactive,0,< 4,–
CC(C)(C)NC(=O)[C@H]1CC[C@H]2[C@@H]3CC[C@H]4NC(=O)C=C[C@]4(C)[C@H]3CC[C@]12C [FINASTERIDE],Inactive,2.7,>= 4,Inactive,1,>= 4,Inactive,1.1,>= 4,Inactive,2.5,>= 4,0,0,Inactive,Inactive,2.7,>= 4,–
C#C[C@]1(O)CC[C@H]2[C@@H]3CCC4=CC(=O)CC[C@@H]4[C@H]3CC[C@@]21CC [LEVONORGESTREL],Active,39.7,>= 4,Active,34,>= 4,Active,28.3,>= 4,Active,34,>= 4,–,–,–,Active,22.7,>= 4,Composite Activity - Active (Hepatotoxicity [5]; Liver): 5; Composite Activity - Marginal (Hepatotoxicity [5]; Liver): 0; Composite Activity - Score (Hepatotoxicity [5]; Liver): Active
C[N+](C)(C)C[C@H](O)CC(=O)[O-] [LEVOCARNITINE],Inactive,0,< 4,Inactive,0,< 4,Inactive,0,< 4,Inactive,0,< 4,0,0,Inactive,Inactive,0,< 4,–
CC(=O)O[C@H]1C[C@@H]2CC[C@@H]3[C@H](CC[C@@]4(C)[C@H]3C[C@H]([N+]3(C)CCCCC3)[C@@H]4OC(C)=O)[C@@]2(C)C[C@@H]1N1CCCCC1.[Br-] [VECURONIUM BROMIDE],Inactive,1,< 4,Inactive,0,< 4,Inactive,1,< 4,Inactive,0,< 4,0,0,Inactive,Inactive,1,< 4,–

# — ChEMBL document CHEMBL1697781, “Assessment of the health effects of chemicals in humans: II. Construction of an adverse effects database for QSAR modeling” (Curr Drug Discov Technol, 2004)
